Reference: ChEMBL document CHEMBL3351574, “Antitubercular activity of quinolizidinyl/pyrrolizidinylalkyliminophenazines” (Bioorg Med Chem, 2014)
Converted amounts (≈) assume the structure as drawn.

What was measured:
[1] = system: Mycobacterium tuberculosis; format: functional; details: H37Ra, 168 h
[2] = system: Mycobacterium tuberculosis; assay: microbe, parasite or virus in culture; details: H37Rv, 168 h
Description: Antitubercular activity against Mycobacterium tuberculosis H37Rv after 7 days by REMA resazurin microtiter assay

[3] = system: Mycobacterium tuberculosis; assay: microbe, parasite or virus in culture; details: isolate 439/11, 168 h
Description: Antitubercular activity against Mycobacterium tuberculosis isolate 439/11 after 7 days by REMA resazurin microtiter assay

Mycobacterium avium = format: functional; details: 168 h
[4] = system: Mycobacterium tuberculosis; assay: microbe, parasite or virus in culture; details: isolate 917/10, 168 h
Description: Antitubercular activity against Mycobacterium tuberculosis isolate 917/10 after 7 days by REMA resazurin microtiter assay

[5] = system: Mycobacterium tuberculosis; assay: microbe, parasite or virus in culture; details: isolate 778/10, 168 h
Description: Antitubercular activity against Mycobacterium tuberculosis isolate 778/10 after 7 days by REMA resazurin microtiter assay

[6] = system: Mycobacterium tuberculosis; assay: microbe, parasite or virus in culture; details: isolate 756/10, 168 h
Description: Antitubercular activity against Mycobacterium tuberculosis isolate 756/10 after 7 days by REMA resazurin microtiter assay

[7] = system: Mycobacterium tuberculosis; assay: microbe, parasite or virus in culture; details: isolate 29/10, 168 h
Description: Antitubercular activity against Mycobacterium tuberculosis isolate 29/10 after 7 days by REMA resazurin microtiter assay

[8] = Cytotoxicity against african green monkey Vero 76 cells assessed as reduction in cell viability after 48 to 96 hrs by MTT method; format: cell-based; details: chlorocebus sabaeus
in vitro [9] = details: human, HMEC1 cells
Description: Selectivity index, ratio of CC50 for human HMEC1 cells to MIC for Mycobacterium tuberculosis H37Rv

in vitro [10] = details: monkey, Vero 76 cells
Description: Selectivity index, ratio of CC50 for african green monkey Vero 76 cells to MIC for Mycobacterium tuberculosis H37Rv

[11] = Cytotoxicity against human HMEC1 cells assessed as reduction in cell viability after 72 hrs by MTT method; format: cell-based, HMEC-1
in vitro [12] = details: human, MT4 cells
Description: Selectivity index, ratio of CC50 for human MT4 cells to MIC for Mycobacterium tuberculosis H37Rv

[13] = Cytotoxicity against human MT4 cells assessed as reduction in cell viability after 96 hrs by MTT method; format: cell-based
[14] = Half life in human; format: ADME, organism-based; details: in vivo
[15] = Lipophilicity, logD of the compound at pH 7.4; format: physicochemical; details: buffer
[16] = system: Mycobacterium tuberculosis; assay: Antitubercular activity against Mycobacterium tuberculosis; format: functional

| SMILES | MIC [1] | MIC [2] | MIC [3] | MIC (Mycobacterium avium) | MIC [4] | MIC [5] | MIC [6] | MIC [7] | CC50 [8] | selectivity ratio (in vitro [9]) | selectivity ratio (in vitro [10]) | CC50 at 72 h [11] | selectivity ratio (in vitro [12]) | CC50 at 96 h [13] | half-life [14] | logD [15] | MIC [16] | logD ([15]; read-out: logD) |
| --- | --- | --- | --- | --- | --- | --- | --- | --- | --- | --- | --- | --- | --- | --- | --- | --- | --- | --- |
| c1ccc(Nc2cc3nc4ccccc4n(-c4ccccc4)c-3c/c2=N/C[C@@H]2CCCN3CCCC[C@H]23)cc1 | 15.6 µM (≈ 8.01 µg/mL) | 15.6 µM (≈ 8.01 µg/mL) |  |  |  |  |  |  |  |  |  |  |  |  |  |  |  |  |
| Cl.Clc1ccc(Nc2cc3nc4ccccc4n(-c4ccc(Cl)cc4)c-3c/c2=N/CCC23CCCN2CCC3)cc1 | 26 µM | > 16 µM | 6.25 µM | > 16 µg/mL | > 16 µg/mL | 12.5 µM | > 16 µg/mL | 0.78 µM |  |  |  |  |  |  |  |  |  |  |
| Clc1ccc(Nc2cc3nc4ccccc4n(-c4ccc(Cl)cc4)c-3c/c2=N/CCC[C@H]2CCCN3CCCC[C@H]23)cc1 |  | 0.82 µM (≈ 0.501 µg/mL) | 0.82 µM (≈ 0.501 µg/mL) | 3.28 µM | 0.82 µM | 0.82 µM (≈ 0.501 µg/mL) | 0.82 µM | 0.82 µM (≈ 0.501 µg/mL) | 9 µM | 3.78 | 11 | 3.1 µM | 1.83 | 1.5 µM |  |  |  |  |
| Clc1ccc(Nc2cc3nc4ccccc4n(-c4ccc(Cl)cc4)c-3c/c2=N/CCC23CCCN2CCC3)cc1 |  |  |  |  |  |  |  |  |  | < 0.06 |  | 1.5 µM |  |  |  |  |  |  |
| CC(C)/N=c1\cc2n(-c3ccc(Cl)cc3)c3ccccc3nc-2cc1Nc1ccc(Cl)cc1 [CLOFAZIMINE] |  | 1.06 µM (≈ 0.502 µg/mL) | 1.06 µM (≈ 0.502 µg/mL) | 4.23 µM | 1.06 µM | 1.06 µM (≈ 0.502 µg/mL) | 1.06 µM | 1.06 µM (≈ 0.502 µg/mL) | > 100 µM | 17.6 | > 94 | 18.6 µM | 6.41 | 6.8 µM | 70 days | 6.36 |  |  |
| c1ccc(Nc2cc3nc4ccccc4n(-c4ccccc4)c-3c/c2=N/CC[C@H]2CCCN3CCCC[C@H]23)cc1 | 7.58 µM (≈ 4 µg/mL) | 7.58 µM (≈ 4 µg/mL) |  |  |  |  |  |  |  |  |  |  |  |  |  |  |  |  |
| NNC(=O)c1ccncc1 [ISONIAZID] |  | 1.82 µM (≈ 0.25 µg/mL) | 1.82 µM (≈ 0.25 µg/mL) |  | 1.82 µM | 0.91 µM (≈ 0.125 µg/mL) | 3.65 µM | 0.91 µM (≈ 0.125 µg/mL) |  |  |  |  |  |  |  |  |  |  |
| Cc1ccc(Nc2cc3nc4ccccc4n(-c4ccc(C)cc4)c-3c/c2=N/C[C@@H]2CCCN3CCCC[C@H]23)cc1.Cl | 26 µM | 6.5 µM | 3.25 µM | 26 µM | 26 µM | 6.5 µM | > 16 µg/mL | 0.81 µM |  |  |  |  |  |  |  |  |  |  |
| Cc1ccc(NC[C@@H]2CCCN3CCCC[C@H]23)c2c(=O)c3ccccc3sc12 |  |  |  |  |  |  |  |  |  |  |  |  |  |  |  |  | 1.25 µg/mL (≈ 3.18 µM) |  |
| c1ccc(Nc2cc3nc4ccccc4n(-c4ccccc4)c-3c/c2=N/CCC23CCCN2CCC3)cc1 |  |  |  |  |  |  |  |  |  | 3.64 |  | 3.2 µM |  |  |  |  |  |  |
| Clc1ccc(Nc2cc3nc4ccccc4n(-c4ccc(Cl)cc4)c-3c/c2=N/CC[C@@H]2CCCN3CCCC[C@H]23)cc1 |  | 0.84 µM (≈ 0.501 µg/mL) | 0.84 µM (≈ 0.501 µg/mL) | 3.35 µM | 0.84 µM | 0.84 µM (≈ 0.501 µg/mL) | 0.84 µM | 0.84 µM (≈ 0.501 µg/mL) | 9 µM | 2.98 | 10.7 | 2.5 µM | 1.43 | 1.2 µM |  |  |  | 5.52 |
| c1ccc(Nc2cc3nc4ccccc4n(-c4ccccc4)c-3c/c2=N/CCC[C@@H]2CCCN3CCCC[C@H]23)cc1 | 7.38 µM (≈ 4 µg/mL) | 7.38 µM (≈ 4 µg/mL) |  |  |  |  |  |  | 36 µM | 1.12 | 4.88 | 8.3 µM | 0.22 | 1.6 µM |  |  |  |  |
| Clc1ccc(Nc2cc3nc4ccccc4n(-c4ccc(Cl)cc4)c-3c/c2=N/C[C@@H]2CCCN3CCCC[C@H]23)cc1 |  | 0.86 µM (≈ 0.501 µg/mL) | 0.86 µM (≈ 0.501 µg/mL) | 6.87 µM | 0.86 µM | 0.86 µM (≈ 0.501 µg/mL) | 0.86 µM | 0.86 µM (≈ 0.501 µg/mL) | 68 µM | 5.46 | 79.1 | 4.7 µM | 5.23 | 4.5 µM |  |  |  | 5.54 |
